Consider one substance from patent publication US8337851B2, “Methods of monitoring the efficacy of anti-CD40 antibodies in treating a subject for a CD40-expressing cancer” (Novartis AG, priority 2005, dated 2012).

Entries after “also recorded” stand apart in the source; their conditions may differ.

In one assay the test system is B-CLL cells. The assay can be described thus: p38 MAPK signaling and survival in B-CLL cells, 24-hour experiment. Type of assay: cell-based, human. On the procedure:
In the 24-hour experiment, approximately 0.8×10^6 B-CLL cells per well were placed in full serum (10% FBS)-containing media for 24 hours. […] Western blot analysis with antibodies against specific proteins shown was conducted, and equal loading was evaluated by probing with antibodies against β-actin.

In another assay the test system is CLL patient samples. The assay can be described thus: p-p38 status in multiple B-CLL patient samples. Type of assay: cell-based, human. As to conditions: CLL patients with high or low basal p-p38; CD40L stimulation. The source says:
Patients with low basal p-p38 activity have a higher induction of phosphorylation by CD40L stimulation than patients with a higher basal expression.

Assay [1] deals with IM-9 tumor cells (a human multiple myeloma cell line). The assay can be described thus: IM-9 multiple myeloma subcutaneous xenograft model. Format: in vivo, SCID mice. On the procedure:
SCID mice were inoculated subcutaneously with IM-9 tumor cells (a human multiple myeloma cell line expressing both CD40 and CD20) in 50% […]™ at 5×10^6 cells per mouse. […] Alternatively, bortezomib dosing at 1 mg/kg intravenously occurred on days 5, 8, 12, and 15 after tumor implantation. […] Antibody dosing occurred on days 8, 14, and 21 post tumor implantation, while bortezomib dosing occurred on days 8, 11, 14 and 18 post tumor implantation. […] Data were analyzed using the log-rank test.

Assay [2] concerns B-CLL cells from patients. Kind of assay: RT-PCR timecourse of transcripts in B-CLL cells. Format: cell-based, human. The note with it: 10 μg/mL with sCD40L, vs IgG1. The procedure: Cell pellets were collected at 0 hr (no CD40L), 1, 4 and 24 hr and lysed simultaneously at the end. RNA was isolated using the RNeasy kit, and cDNA was prepared using the ABI RT kit. Two-step RT-PCR was done with the genes shown in two separate reactions, based on TM of each set of oligos.

A further assay deals with KMS-12-BM tumor. Kind of assay: Human KMS-12-BM subcutaneous xenograft model. Format: in vivo, SCID mice. The note with it: 42 days post cell implantation. The procedure:
Female SCID mice were treated with 3Gy irradiation one day prior to implantation of tumor cells. On the day of implantation, cells were prepared at a concentration of 5×10^7 cells/ml in 50% matrigel. Cells were implanted subcutaneously over the right flank at 5×10^6 cells/100 μl/mouse. […] Antibodies were administered intraperitoneally once a week for 4 weeks. Bortezomib was administered intravenously twice a week for two weeks.
For orientation: A xenograft is tissue or cells of one species grown in another, often human tumour cells in immunodeficient mice.

For “CHIR-12.12: fully human anti-CD40 monoclonal antibody of the IgG1 isotype from hybridoma cell line 153.8E2.D10.D6.12.12 (ATCC PTA-5543)”, the CD40 expression entry with B-CLL cells is recorded as “inhibited”. Also, in the assay with B-CLL cells (CD40L), the “cleaved Caspase-3” value is given as “induced to a lesser extent” and the p38 phosphorylation result is recorded as “similarly blocked”. The cleaved-PARP entry in the assay with B-CLL cells (SB203580 30 and 60 μM, CHIR-12.12 10 μg/mL, CD40L) is “significantly induced”. Further, the Bcl-xl expression result with B-CLL cells (especially 60 μM SB203580 and 10 μg/ml CHIR-12.12) is reported as “blocked”. Further, the p-p38 levels result with CLL patient samples is on record as “lowered p-p38 levels back to basal phosphorylation”. For the same substance, in assay [1] (5 days after a single dose), the “Ki67+ proliferating cells (histology)” value is listed as “significantly reduced the number of Ki67^+ proliferating cells”; the “cleaved caspase 3 and cleaved PARP (histology)” value is “increased the level of cleaved caspase 3 and cleaved PARP”. Besides, in assay [1] (first study, CHIR-12.12 1 and 10 mg/kg i.p. days 5, 12, 18, bortezomib 1 mg/kg i.v. days 5, 8, 12, 15), the tumor growth result was “inhibited tumor growth at 15, 18, and 21 days post tumor implantation”. For the same substance, the “tumor volume, CHIR-12.12 in combination with bortezomib” value in assay [1] (second study, CHIR-12.12 1 mg/kg i.p. plus bortezomib 1 mg/kg i.v.) was “the efficacy observed was additive; also recorded: a tumor volume reduction was observed on days 13, 16, 20, 23, and 26”. Further, the “RNA expression of CD40, CD40L, VEGF, TRAF2 and TRAF3” value in assay [2] (1, 4, 24 hr) is reported as “inhibition of RNA expression”. Moreover, in assay [2], the “RNA expression of IL-6” value is on record as “no transcriptional changes”; the “RNA expression of TRAF6 and Mcl-1” value is “minor down-regulation”. Also, the tumor volume reduction in the assay with KMS-12-BM tumor (1 mg/kg i.p. once a week for 4 weeks, P>0.05) is reported as 32%. In the assay on KMS-12-BM tumor (10 mg/kg i.p. once a week for 4 weeks, P<0.05), this substance showed a tumor volume reduction of 35%.
